Measurements from patent US6720314B1, “Use of a vital dye for facilitating surgical procedures for cataract extraction” (priority 1998, dated 2004).

Experiments:
[1] = toxicity profile of the dyes (general statement)
[2] = test system: anterior lens capsule; experiment: staining capacity of the dyes (general statement); settings: very low amounts of dye

Structure (SMILES)	toxicity profile [1]	staining [2]
Cc1cc(-c2ccc(/N=N/c3c(S(=O)(=O)O)cc4cc(S(=O)(=O)O)cc(N)c4c3O)c(C)c2)ccc1/N=N/c1c(S(=O)(=O)O)cc2cc(S(=O)(=O)O)cc(N)c2c1O [trypan blue]	extremely advantageous toxicity profile	clearly visible staining at very low amounts
Nc1c(S(=O)(=O)[O-])cc2cc(S(=O)(=O)[O-])ccc2c1N=Nc1ccc(-c2ccc(N=Nc3c(N)c(S(=O)(=O)[O-])cc4cc(S(=O)(=O)[O-])ccc34)c(S(=O)(=O)[O-])c2)cc1.[Na+].[Na+].[Na+].[Na+].[Na+] [trypan red]	–	clearly visible staining at very low amounts
CCN(CC)c1ccc2nc3cc(C)c(N)cc3[o+]c2c1.[Cl-] [brilliant crysyl blue]	extremely advantageous toxicity profile	clearly visible staining at very low amounts
